We go through 19 compounds from patent publication US20060247261A1 (priority 2002, published 2006).

This assay deals with T1, human cannabinoid CB2 receptor (Homo sapiens, UniProt P34972).
T1 construct: expressed in transfected cells; host or cells: Saccharomyces cerevisiae strain MMY23 (expresses a chimeric Gpa1/human Galpha-i3 G-protein alpha subunit)
The assay is described as follows: Cannabinoid CB2 receptor agonist activity, yeast reporter assay. The format is cell-based. The conditions noted are these: for Emax: read-out: efficacy (Emax) at the cloned human cannabinoid CB2 receptor. An outline of the steps: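 Agonism read in S. cerevisiae strain MMY23 with the human CB2 receptor integrated at ura3 under the GPD promoter, coupled through a Gpa1/human Gαi3 C-terminal chimeric G-alpha. Compounds were added in DMSO (1% final). Fluorescence versus concentration was fitted by four-parameter fit to give a concentration effect value.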

T1 sequence (P34972 whole entry): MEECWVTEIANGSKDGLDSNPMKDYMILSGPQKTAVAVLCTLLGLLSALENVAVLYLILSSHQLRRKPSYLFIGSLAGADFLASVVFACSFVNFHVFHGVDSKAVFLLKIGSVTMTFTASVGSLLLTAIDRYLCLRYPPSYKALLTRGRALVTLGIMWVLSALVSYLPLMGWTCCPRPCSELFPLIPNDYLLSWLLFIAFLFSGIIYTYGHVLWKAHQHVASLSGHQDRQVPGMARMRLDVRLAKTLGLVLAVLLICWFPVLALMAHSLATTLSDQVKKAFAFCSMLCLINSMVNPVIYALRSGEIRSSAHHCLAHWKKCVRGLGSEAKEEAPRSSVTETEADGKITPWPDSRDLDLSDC

As for `CN(Cc1ccccc1)C(=O)c1cnc(Nc2ccccc2Cl)nc1C(F)(F)F` [Example 96, 2-(2-Chloro-phenylamino)-4-trifluoromethyl-pyrimidine-5-carboxylic acid benzyl-methyl-amide], the Emax is greater than 50%. Regarding `N#Cc1cccc(Nc2ncc(C(=O)NCc3ccccc3)c(C(F)(F)F)n2)c1` [Example 97, 2-(3-Cyano-phenylamino)-4-trifluoromethyl-pyrimidine-5-carboxylic acid benzylamide], the EC50 was 0.02 to 1 µM and the Emax is greater than 50%. The corresponding values for `O=C(NCc1ccccc1)c1cnc(Nc2c(Cl)cccc2Cl)nc1C(F)(F)F` [Example 98, 2-(2,6-Dichloro-phenylamino)-4-trifluoromethyl-pyrimidine-5-carboxylic acid benzylamide] are 0.02 to 1 µM and greater than 50%.

For `O=C(NCc1ccc(F)cc1)c1cnc(Nc2cccc(Cl)c2Cl)nc1C(F)(F)F` [Example 99, 2-(2,3-Dichloro-phenylamino)-4-trifluoromethyl-pyrimidine-5-carboxylic acid 4-fluoro-benzylamide], the EC50 lay within 0.02 to 1 µM and the Emax was greater than 50%.

`O=C(NCc1ccc(F)cc1)c1cnc(Nc2ccc(Cl)cc2Cl)nc1C(F)(F)F` [Example 100, 2-(2,4-Dichloro-phenylamino)-4-trifluoromethyl-pyrimidine-5-carboxylic acid 4-fluoro-benzylamide]: the EC50 fell in the range of 0.02 to 1 µM and the Emax is greater than 50%. In the same order, the values of `O=C(NCc1ccc(F)cc1)c1cnc(Nc2cc(Cl)ccc2Cl)nc1C(F)(F)F` [Example 101, 2-(2,5-Dichloro-phenylamino)-4-trifluoromethyl-pyrimidine-5-carboxylic acid 4-fluoro-benzylamide] are 0.02 to 1 µM and greater than 50%. The corresponding values for `O=C(NCc1ccc(F)cc1)c1cnc(Nc2ccc(Cl)c(Cl)c2)nc1C(F)(F)F` [Example 102, 2-(3,4-Dichloro-phenylamino)-4-trifluoromethyl-pyrimidine-5-carboxylic acid 4-fluoro-benzylamide] are 0.02 to 1 µM and greater than 50%.

As to `O=C(NCc1ccc(F)cc1F)c1cnc(Nc2cccc(Cl)c2)nc1C(F)(F)F` [Example 103, 2-(3-Chloro-phenylamino)-4-trifluoromethyl-pyrimidine-5-carboxylic acid 2,4-difluoro-benzylamide], the EC50 was 0.02 to 1 µM and the Emax is greater than 50%. The corresponding values for `O=C(NCc1ccc(F)cc1)c1cnc(Nc2ccc(C(F)(F)F)c(F)c2)nc1C(F)(F)F` [Example 104, 2-(3-Fluoro-4-trifluoromethyl-phenylamino)-4-trifluoromethyl-pyrimidine-5-carboxylic acid 4-fluoro-benzylamide] are 0.02 to 1 µM and greater than 50%. In the same order, the values of `NC(=O)c1ccc(CNC(=O)c2cnc(Nc3cccc(Cl)c3)nc2C(F)(F)F)cc1` [Example 105, 2-(3-Chloro-phenylamino)-4-trifluoromethyl-pyrimidine-5-carboxylic acid 4-carbarnoyl-benzylamide] are greater than 1 µM and less than 50%. Turning to `CC(C)(C)c1ccc(CNC(=O)c2cnc(Nc3cccc(Cl)c3)nc2C(F)(F)F)cc1` [Example 106, 2-(3-Chloro-phenylamino)-4-trifluoromethyl-pyrimidine-5-carboxylic acid 4-tert-butyl-benzylamide], the EC50 was greater than 1 µM and the maximal effect (Emax) was less than 50%. As to `CC(C)(C)OC(=O)Nc1ccc(CNC(=O)c2cnc(Nc3cccc(Cl)c3)nc2C(F)(F)F)cc1` [Example 107], the EC50 is greater than 1 µM and the Emax is less than 50%. In the same order, the values of `C[C@@H](NC(=O)c1cnc(Nc2cccc(Cl)c2)nc1C(F)(F)F)c1ccccc1` [Example 108, 2-(3-Chloro-phenylamino)-4-trifluoromethyl-pyrimidine-5-carboxylic acid ((R)-1-phenyl-ethyl)-amide] are greater than 1 µM and less than 50%. In the same order, the values of `O=C(NCc1ccc(F)c(Cl)c1)c1cnc(Nc2cccc(Cl)c2)nc1C(F)(F)F` [Example 109, 2-(3-Chloro-phenylamino)-4-trifluoromethyl-pyrimidine-5-carboxylic acid 3-chloro,4-fluoro-benzylamide] are greater than 1 µM and less than 50%. The corresponding values for `CN(Cc1ccc(F)cc1)C(=O)c1cnc(Nc2cccc(Cl)c2)nc1C(F)(F)F` [Example 110, 2-(3-Chloro-phenylamino)-4-trifluoromethyl-pyrimidine-5-carboxylic acid (4-fluoro-benzyl)-methyl-amide] are greater than 1 µM and less than 50%. Turning to `O=C(NCc1ccc(F)cc1)c1cnc(Nc2ccc(OC(F)(F)F)c(Cl)c2)nc1C(F)(F)F` [Example 111, 2-(3-Chloro-4-trifluoromethoxy-phenylamino)-4-trifluoromethyl-pyrimidine-5-carboxylic acid 4-fluoro-benzylamide], the EC50 was greater than 1 µM and the Emax was less than 50%.

For the compound `O=C(O)Cc1cccc(Nc2ncc(C(=O)NCc3ccc(F)cc3)c(C(F)(F)F)n2)c1` [Example 112, {3-[(4-Fluoro-benzylcarbamoyl)-trifluoromethyl-pyrimidin-2-ylamino]-phenyl}-acetic acid], the EC50 was greater than 1 µM and the Emax is less than 50%. `O=C(O)c1cc(Cl)cc(Nc2ncc(C(=O)NCc3ccc(F)cc3)c(C(F)(F)F)n2)c1` [Example 113, 3-Chloro-5-[(4-fluoro-benzylcarbamoyl)-trifluoromethyl-pyrimidin-2-ylarnino]-benzoic acid]: the EC50 was greater than 1 µM and the Emax was less than 50%. As to `O=C(NCc1ccc(F)cc1)c1cnc(Nc2cc(C(F)(F)F)cc(C(F)(F)F)c2)nc1C(F)(F)F` [Example 114, 2-(3,5-Ditrifluoromethyl-phenylamino)-4-trifluoromethyl-pyrimidine-5-carboxylic acid 4-fluoro-benzylamide], the EC50 was greater than 1 µM and the maximum response (Emax) was less than 50%.

One may read the Emax as the greatest response seen or fitted, relative to the assay's reference. A word on the EC50: it is the concentration at which the effect is half-maximal.
